Consider eleven molecules from US20250136633A1, “TELOMERE-TARGETING PHOSPHATIDYL-THIO CONJUGATES” (MAIA BIOTECHNOLOGY, INC., priority 2023, published 2025).

Data set [1] deals with HT29 Colorectal Carcinoma Cells (CRC). Nature of the data set: In vitro anticancer activity (cytotoxicity) of phosphatidyl-THIO conjugates in HT29 cells. The data set is classed as cell-based. The note with it: for EC50: Homo sapiens, HT 29 CRC cells; for anticancer (cytotoxic) activity, in words: in vitro, comparison among the phosphatidyl conjugates and with the free pharmacophores. Here is the method: The in vitro activity of Phosphatidyl-THIO conjugates were tested in HT29 Colorectal Carcinoma Cells (CRC) (Table 2)
Anticancer activity of the one or more phosphatidyl-THIO conjugate compounds disclosed herein, was evaluated in vitro in various cancer cell lines, according to commonly used procedures for assessment of compounds cytotoxicity, as out lined in the following publications: Mender, I., Gryaznov, S., Dikmen, Z. G., Wright, W. E., & Shay, J. W. (2015). Induction of telomere dysfunction mediated by the telomerase substrate precursor 6-thio-2′-deoxyguanosine. Cancer Discovery, 5, 82-95; Mender et al., (2020). Telomere Stress Potentiates STING-Dependent Anti-tumor Immunity. Cancer Cell, 38, 400-411.

For the next data set, the system named is cancer cells. Put plainly: Induction of telomere dysfunction-induced foci (TIF) and micronuclei in cancer cells. It is filed as cell-based. The note with it: treatment of cancer cells; data not shown.

What is called EC50 is the concentration at which the effect is half-maximal. In the case of `CCCC(=O)OC[C@H](COP(=O)(O)OC[C@H]1O[C@@H](n2cnc3c(=S)[nH]c(N)nc32)C[C@@H]1O)OC(=O)CCC` [Compound C4-6SdG, 5′-(1,2-dibutyryl-sn-glycero-3-phospho)-6-thio-2′-deoxyguanosine], the EC50 in data set [1] is 260 nM. On the same count and under the same terms, with `CCCCCCCCCCCCCC(=O)OC[C@H](COP(=O)(O)OC[C@H]1O[C@@H](n2cnc3c(=S)[nH]c(N)nc32)C[C@@H]1O)OC(=O)CCCCCCCCCCCCC` [Compound C14-6SdG, 5′-(1,2-dimyristoyl-sn-glycero-3-phospho)-6-thio-2′-deoxyguanosine] the figure was 490 nM; with `CCCCCCCC(=O)OC[C@H](COP(=O)(O)OC[C@H]1O[C@@H](n2cnc3c(=S)[nH]c(N)nc32)[C@H](O)[C@@H]1O)OC(=O)CCCCCCC` [Compound C8-6SriboG, 5′-(1,2-dioctanoyl-sn-glycero-3-phospho)-6-thio-guanosine], 260 nM; with `Nc1nc2c(ncn2[C@H]2C[C@H](O)[C@@H](CO)O2)c(=S)[nH]1` [Compound 6-thio-dG, 6-thio-2′-deoxyguanosine, reference compound], 200 nM. Consider `CCCCCCCCCCCCCCCCCC(=O)OC[C@H](COP(=O)(O)OC[C@H]1O[C@@H](n2cnc3c(=S)[nH]c(N)nc32)C[C@@H]1O)OC(=O)CCCCCCCCCCCCCCCCC` [Compound C18-6SdG, 5′-(1,2-distearoyl-sn-glycero-3-phospho)-6-thio-2′-deoxyguanosine], for which, in data set [1], the EC50 was 12400 nM and the “anticancer (cytotoxic) activity, in words” value was “least active”. Consider `CCCCCCCCCCCC(=O)OC[C@H](COP(=O)(O)OC[C@H]1O[C@@H](n2cnc3c(=S)[nH]c(N)nc32)[C@H](O)[C@@H]1O)OC(=O)CCCCCCCCCCC` [Compound C12-6SriboG, 5′-(1,2-dilauroyl-sn-glycero-3-phospho)-6-thio-guanosine], for which the EC50 in data set [1] was determined as 600 nM. Turning to `CCCCCC(=O)OC[C@H](COP(=O)(O)OC[C@H]1O[C@@H](n2cnc3c(=S)[nH]c(N)nc32)C[C@@H]1O)OC(=O)CCCCC` [Compound C6-6SdG, 5′-(1,2-dihexanoyl-sn-glycero-3-phospho)-6-thio-2′-deoxyguanosine], in data set [1], the EC50 is 80 nM. For the same molecule, in the data set on cancer cells, the “induction of telomere dysfunction-induced foci (TIF)-positive cells and micronuclei formation” value is “efficient induction”. Take `CCCCCCCC(=O)OC[C@H](COP(=O)(O)OC[C@H]1O[C@@H](n2cnc3c(=S)[nH]c(N)nc32)C[C@@H]1O)OC(=O)CCCCCCC` [Compound C8-6SdG, 5′-(1,2-dioctanoyl-sn-glycero-3-phospho)-6-thio-2′-deoxyguanosine]: the EC50 in data set [1] was determined as 350 nM. For the molecule `CCCCCC(=O)OC[C@H](COP(=O)(O)OC[C@H]1O[C@@H](n2cnc3c(=S)[nH]c(N)nc32)[C@H](O)[C@@H]1O)OC(=O)CCCCC` [Compound C6-6SriboG, 5′-(1,2-dihexanoyl-sn-glycero-3-phospho)-6-thio-guanosine], in data set [1], the EC50 was determined as 200 nM. Take `CCCCCCCC/C=C\CCCCCCCC(=O)OC[C@H](COP(=O)(O)OC[C@H]1O[C@@H](n2cnc3c(=S)[nH]c(N)nc32)C[C@@H]1O)OC(=O)CCCCCCC/C=C\CCCCCCCC` [C18:01-6SdG, 5′-(1,2-dioleoyl-sn-glycero-3-phospho)-6-thio-2′-deoxyguanosine]: in data set [1], the EC50 is 460 nM and the “anticancer (cytotoxic) activity, in words” value was “essentially recovered cytotoxic activity”.

On to `CCCCCCCCCCCC(=O)OC[C@H](COP(=O)(O)OC[C@H]1O[C@@H](n2cnc3c(=S)[nH]c(N)nc32)C[C@@H]1O)OC(=O)CCCCCCCCCCC` [Compound C12-6SdG, 5′-(1,2-dilauroyl-sn-glycero-3-phospho)-6-thio-2′-deoxyguanosine], for which the EC50 in data set [1] turned out to be 480 nM.
